Measurements reported in paper PMC10141580, “Cyclic Dichalcogenides Extend the Reach of Bioreductive Prodrugs to Harness Thiol/Disulfide Oxidoreductases: Applications to seco-Duocarmycins Targeting the Thioredoxin System” (ACS Central Science, 2023).
Like-named read-outs stand apart in the source and are kept apart here.

What was measured:
HeLa-HRE cells = assay: Resazurin cytotoxicity assay, HeLa-HRE, 48 h
Experimental: We used A549 lung cancer and HeLa cervical cancer cell lines for initial screening of the prodrugs.
HeLa-HRE cells were treated with prodrugs of the
Dose -response curves were calculated from at least 27 incremental single concentrations over a
range of at least three log units.

[1] = system: NCI-60 standardized human tumor cell line panel; assay: cells; format: cell-based; conditions: for NCI-60 screening: Log(RedIndex): log10 reductive index vs P-CC60; for GI50: Homo sapiens

Compound: COc1cc2cc(C(=O)N3C[C@@H](CCl)c4c3cc(OC(=O)N3CCN(C(=O)CCC(=O)N5CCN(C)CC5)[C@H]5CSSC[C@H]53)c3ccccc43)[nH]c2c(OC)c1OC [P-SS66C-CBI-TMI]
- IC50 (HeLa-HRE cells; Homo sapiens, HeLa, 48 h, read-out: IC50(nM): HeLa): 200 nM
- IC50(HeLa)/IC50(A549) (HeLa-HRE cells; ratio HeLa vs A549): 17
- reductive activation index ratio NCI-60/ProliFiler, mean ([1]; 19 overlapping cell lines): 1.8 fold
- NCI-60 screening: Log(RedIndex) ([1]; 786-0 (RE) cell line): 1.22
- NCI-60 screening: Log(RedIndex) ([1]; A498 (RE) cell line): 1.1
- NCI-60 screening: Log(RedIndex) ([1]; ACHN (RE) cell line): 1.07
- NCI-60 screening: Log(RedIndex) ([1]; CAKI-1 (RE) cell line): 0.94
- NCI-60 screening: Log(RedIndex) ([1]; DU-145 (PR) cell line): 1.27
- GI50 ([1]; 786-0, 786-0 (RE) cell line, log10 of GI50 in M, read-out: NCI-60 screening: Log(GI50) (converted)): 105 nM
- GI50 ([1]; 786-0, 786-0 (RE) cell line, read-out: NCI-60 screening: Raw GI50): 110 nM
- GI50 ([1]; 786-0, 786-0, read-out: GI50): 110 nM
- GI50 ([1]; A498, A498 (RE) cell line, log10 of GI50 in M, read-out: NCI-60 screening: Log(GI50) (converted)): 219 nM
- GI50 ([1]; A498, A498, read-out: GI50): 220 nM
- GI50 ([1]; A549, A549/ATCC, read-out: GI50): 90 nM
- GI50 ([1]; A549, cell line A549/ATCC (LC:A549/ATCC), TMI sheet, read-out: NCI-60 screening: Log(GI50) (converted)): 89.1 nM
- GI50 ([1]; ACHN, ACHN (RE) cell line, log10 of GI50 in M, read-out: NCI-60 screening: Log(GI50) (converted)): 42.7 nM
- GI50 ([1]; ACHN, read-out: GI50): 42 nM
- GI50 ([1]; BT-549, BT-549, read-out: GI50): 140 nM
- GI50 ([1]; BT-549, cell line BT-549 (BR:BT-549), TMI sheet, read-out: NCI-60 screening: Log(GI50) (converted)): 145 nM
- GI50 ([1]; BT-549, cell line BT-549 (BR:BT-549), TMI sheet, read-out: NCI-60 screening: Raw GI50): 140 nM
- GI50 ([1]; CAKI-1, CAKI-1 (RE) cell line, log10 of GI50 in M, read-out: NCI-60 screening: Log(GI50) (converted)): 174 nM
- GI50 ([1]; CAKI-1, Caki-1, read-out: GI50): 170 nM
- GI50 ([1]; CCRF-CEM, cell line CCRF-CEM (LE:CCRF-CEM), TMI sheet, read-out: NCI-60 screening: Log(GI50) (converted)): 269 nM
- GI50 ([1]; CCRF-CEM, cell line CCRF-CEM (LE:CCRF-CEM), TMI sheet, read-out: NCI-60 screening: Raw GI50): 270 nM
- GI50 ([1]; CCRF-CEM, read-out: GI50): 270 nM
- GI50 ([1]; COLO 205, Colo 205, read-out: GI50): 140 nM
- GI50 ([1]; COLO 205, cell line COLO 205 (CO:COLO 205), TMI sheet, read-out: NCI-60 screening: Log(GI50) (converted)): 145 nM
- GI50 ([1]; COLO 205, cell line COLO 205 (CO:COLO 205), TMI sheet, read-out: NCI-60 screening: Raw GI50): 140 nM
- GI50 ([1]; DU-145, DU-145 (PR) cell line, log10 of GI50 in M, read-out: NCI-60 screening: Log(GI50) (converted)): 24.5 nM
- GI50 ([1]; DU-145, DU-145, read-out: GI50): 25 nM
- GI50 ([1]; EKVX, cell line EKVX (LC:EKVX), TMI sheet, read-out: NCI-60 screening: Log(GI50) (converted)): 209 nM
- GI50 ([1]; EKVX, read-out: GI50): 210 nM
- GI50 ([1]; HCC 2998, HCC-2998, read-out: GI50): 54 nM
- GI50 ([1]; HCC 2998, cell line HCC-2998 (CO:HCC-2998), TMI sheet, read-out: NCI-60 screening: Log(GI50) (converted)): 53.7 nM
- GI50 ([1]; HCT-15, HCT-15, read-out: GI50): 240 nM
- GI50 ([1]; HCT-15, cell line HCT-15 (CO:HCT-15), TMI sheet, read-out: NCI-60 screening: Log(GI50) (converted)): 245 nM
- GI50 ([1]; HCT-15, cell line HCT-15 (CO:HCT-15), TMI sheet, read-out: NCI-60 screening: Raw GI50): 240 nM
- GI50 ([1]; HCT-116, HCT-116, read-out: GI50): 150 nM
- GI50 ([1]; HCT-116, cell line HCT-116 (CO:HCT-116), TMI sheet, read-out: NCI-60 screening: Log(GI50) (converted)): 155 nM
- GI50 ([1]; HCT-116, cell line HCT-116 (CO:HCT-116), TMI sheet, read-out: NCI-60 screening: Raw GI50): 150 nM
- GI50 ([1]; HL-60, HL-60(TB), read-out: GI50): 48 nM
- GI50 ([1]; HL-60, cell line HL-60(TB) (LE:HL-60(TB)), TMI sheet, read-out: NCI-60 screening: Log(GI50) (converted)): 47.9 nM
- GI50 ([1]; HOP-62, HOP-62, read-out: GI50): 41 nM
- GI50 ([1]; HOP-62, cell line HOP-62 (LC:HOP-62), TMI sheet, read-out: NCI-60 screening: Log(GI50) (converted)): 41.7 nM
- GI50 ([1]; HOP-92, HOP-92, read-out: GI50): 180 nM
- GI50 ([1]; HOP-92, cell line HOP-92 (LC:HOP-92), TMI sheet, read-out: NCI-60 screening: Log(GI50) (converted)): 178 nM
- GI50 ([1]; HT-29, HT29, read-out: GI50): 140 nM
- GI50 ([1]; HT-29, cell line HT29 (CO:HT29), TMI sheet, read-out: NCI-60 screening: Log(GI50) (converted)): 141 nM
- GI50 ([1]; HT-29, cell line HT29 (CO:HT29), TMI sheet, read-out: NCI-60 screening: Raw GI50): 140 nM
- GI50 ([1]; Hs-578T, read-out: GI50): 290 nM
- GI50 ([1]; Hs-578T, read-out: NCI-60 screening: Log(GI50) (converted)): 295 nM
- GI50 ([1]; IGROV-1, IGROV1 (OV) cell line, log10 of GI50 in M, read-out: NCI-60 screening: Log(GI50) (converted)): 200 nM
- GI50 ([1]; IGROV-1, IGROV1, read-out: GI50): 200 nM
- GI50 ([1]; K562, K-562, read-out: GI50): 89 nM
- GI50 ([1]; K562, cell line K-562 (LE:K-562), TMI sheet, read-out: NCI-60 screening: Log(GI50) (converted)): 89.1 nM
- GI50 ([1]; KM12, KM12, read-out: GI50): 130 nM
- GI50 ([1]; KM12, cell line KM12 (CO:KM12), TMI sheet, read-out: NCI-60 screening: Log(GI50) (converted)): 132 nM
- GI50 ([1]; KM12, cell line KM12 (CO:KM12), TMI sheet, read-out: NCI-60 screening: Raw GI50): 130 nM
- GI50 ([1]; LOX IMVI, cell line LOX IMVI (ME:LOX IMVI), TMI sheet, read-out: NCI-60 screening: Log(GI50) (converted)): 69.2 nM
- GI50 ([1]; LOX IMVI, read-out: GI50): 69 nM
- GI50 ([1]; M14, M14, read-out: GI50): 120 nM
- GI50 ([1]; MCF7, MCF7, read-out: GI50): 15 nM
- GI50 ([1]; MCF7, cell line MCF7 (BR:MCF7), TMI sheet, read-out: NCI-60 screening: Log(GI50) (converted)): 14.8 nM
- GI50 ([1]; MDA-MB-435, MDA-MB-435, read-out: GI50): 150 nM
- GI50 ([1]; MDA-MB-435, cell line MDA-MB-435 (ME:MDA-MB-435), TMI sheet, read-out: NCI-60 screening: Log(GI50) (converted)): 148 nM
- GI50 ([1]; MDA-MB-435, cell line MDA-MB-435 (ME:MDA-MB-435), TMI sheet, read-out: NCI-60 screening: Raw GI50): 150 nM
- GI50 ([1]; MDA-MB-468, MDA-MB-468, read-out: GI50): 37 nM
- GI50 ([1]; MOLT-4, MOLT-4, read-out: GI50): 63 nM
- GI50 ([1]; MOLT-4, cell line MOLT-4 (LE:MOLT-4), TMI sheet, read-out: NCI-60 screening: Log(GI50) (converted)): 63.1 nM
- GI50 ([1]; Malme-3M, cell line MALME-3M (ME:MALME-3M), TMI sheet, read-out: NCI-60 screening: Log(GI50) (converted)): 135 nM
- GI50 ([1]; Malme-3M, cell line MALME-3M (ME:MALME-3M), TMI sheet, read-out: NCI-60 screening: Raw GI50): 130 nM
- GI50 ([1]; Malme-3M, read-out: GI50): 130 nM
- GI50 ([1]; NCI-H23, NCI-H23, read-out: GI50): 19 nM
- GI50 ([1]; NCI-H23, cell line NCI-H23 (LC:NCI-H23), TMI sheet, read-out: NCI-60 screening: Log(GI50) (converted)): 18.6 nM
- GI50 ([1]; NCI-H23, cell line NCI-H23 (LC:NCI-H23), TMI sheet, read-out: NCI-60 screening: Raw GI50): 19 nM
- GI50 ([1]; NCI-H226, NCI-H226, read-out: GI50): 240 nM
- GI50 ([1]; NCI-H226, cell line NCI-H226 (LC:NCI-H226), TMI sheet, read-out: NCI-60 screening: Log(GI50) (converted)): 245 nM
- GI50 ([1]; NCI-H226, cell line NCI-H226 (LC:NCI-H226), TMI sheet, read-out: NCI-60 screening: Raw GI50): 240 nM
- GI50 ([1]; NCI-H322M, read-out: GI50): 50 nM
- GI50 ([1]; NCI-H322M, read-out: NCI-60 screening: Log(GI50) (converted)): 50.1 nM
- GI50 ([1]; NCI-H460, NCI-H460 (LC) cell line, log10 of GI50 in M, read-out: NCI-60 screening: Log(GI50) (converted)): 22.4 nM
- GI50 ([1]; NCI-H460, NCI-H460, read-out: GI50): 22 nM
- GI50 ([1]; NCI-H522, NCI-H522 (LC) cell line, log10 of GI50 in M, read-out: NCI-60 screening: Log(GI50) (converted)): 55 nM
- GI50 ([1]; NCI-H522, NCI-H522, read-out: GI50): 56 nM
- GI50 ([1]; OVCAR-3, OVCAR-3 (OV) cell line, log10 of GI50 in M, read-out: NCI-60 screening: Log(GI50) (converted)): 145 nM
- GI50 ([1]; OVCAR-3, OVCAR-3 (OV) cell line, read-out: NCI-60 screening: Raw GI50): 140 nM
- GI50 ([1]; OVCAR-3, OVCAR-3, read-out: GI50): 140 nM
- GI50 ([1]; OVCAR-4, OVCAR-4 (OV) cell line, log10 of GI50 in M, read-out: NCI-60 screening: Log(GI50) (converted)): 195 nM
- GI50 ([1]; OVCAR-4, OVCAR-4, read-out: GI50): 190 nM
- GI50 ([1]; OVCAR-5, OVCAR-5 (OV) cell line, log10 of GI50 in M, read-out: NCI-60 screening: Log(GI50) (converted)): 257 nM
- GI50 ([1]; OVCAR-5, OVCAR-5, read-out: GI50): 250 nM
- GI50 ([1]; OVCAR-8, OVCAR-8 (OV) cell line, log10 of GI50 in M, read-out: NCI-60 screening: Log(GI50) (converted)): 91.2 nM
- GI50 ([1]; OVCAR-8, OVCAR-8, read-out: GI50): 92 nM
